Counter-ions that a name gives are not always drawn.

These results are taken from US20240409505A1, “GLUCONAMIDE SULFATE SURFACTANTS” (The Procter & Gamble Company, priority 2023, published 2024).

The data set in a line: Final product mixed with Deionized Water at room temperature. The conditions noted are these: 0.0130 g of final product mixed with 1.287 g of Deionized Water at room temperature. The data set is classed as physicochemical. From the text:
Vacuum filtered solution through Grade 4 filter paper to obtain a clear, colorless solution. […] The solution was concentrated using a rotary evaporator until mixture began to foam, then solution was transferred to a glass crystallizing dish and placed in a vacuum oven at room temperature under a partial vacuum of 3 inches of Hg internal oven pressure.

“Sodium (2R,3R,4S,5R)-6-((2-1H-indol-2-yl)ethyl) amino)-2,3,4,5-tetrahydroxy-6-Oxohexyl Sulfate [Example 8]”: the “appearance of mixture with Deionized Water (solubility)” value (from here on “appearance of mixture”) was “completely clear, colorless solution that foamed when shaken”.

`CCCCCCCC/C=C\CCCCCCCCNC(=O)[C@H](O)[C@@H](O)[C@H](O)[C@H](O)COS(=O)(=O)O` [Example 4, Sodium (2R,3R,4S,5R)-2,3,4,5-tetrahydroxy-6-(((Z)-octadec-9-en-1-yl)amino)-6-oxohexyl sulfate]: the “appearance of mixture” value is “completely clear, colorless solution that foamed when shaken”.

Regarding `CCCCCCCCCCCCNC(=O)[C@H](O)[C@@H](O)[C@H](O)[C@H](O)COS(=O)(=O)O` [Example 1, Sodium (2R,3R,4S,5R)-6-(dodecylamino)-2,3,4,5-tetrahydroxy-6-oxohexyl sulfate], the “appearance of mixture” value was “completely clear, colorless solution that foamed when shaken”.

Regarding `CCCCCCCCCCCCCCNC(=O)[C@H](O)[C@@H](O)[C@H](O)[C@H](O)COS(=O)(=O)O` [Example 2, Sodium (2R,3R,4S,5R)-6-(tetradecylamino)-2,3,4,5-tetrahydroxy-6-oxohexyl sulfate], the “appearance of mixture” value was “completely clear, colorless solution that foamed when shaken”.

`CCCCCCCCCCCCCCCCNC(=O)[C@H](O)[C@@H](O)[C@H](O)[C@H](O)COS(=O)(=O)O` [Example 3, Sodium (2R,3R,4S,5R)-6-(hexadecylamino)-2,3,4,5-tetrahydroxy-6-oxohexyl sulfate]: the “appearance of mixture” value was “completely clear, colorless solution that foamed when shaken”.

On to `O=C(NCc1ccccc1)[C@H](O)[C@@H](O)[C@H](O)[C@H](O)COS(=O)(=O)O` [Example 7, Sodium (2R,3R,4S,5R)-6-(benzylamino)-2,3,4,5-tetrahydroxy-6-oxohexyl Sulfate], for which the “appearance of mixture” value is “completely clear, colorless solution that foamed when shaken”.
